From paper PMC7138916 (Pharmacology Research & Perspectives, 2020)
Like-named read-outs stand apart in the source and are kept apart here.

How the values were obtained:
[1] = tested on: efflux transporters (eg, P‐gp, BCRP, MRPs); assay: Classification as efflux transporter substrate; conditions: for Efflux transporter substrate: Yes/No; for Class (based on membrane permeability and ER value): parental MDCK, MDR1‐MDCK, and Caco‐2 cell lines
[2] = Rat pharmacokinetic study, IV single bolus; conditions: male, Sprague-Dawley, in vivo, iv
[3] = Bidirectional permeability in parental MDCK cells; format: in vitro ADME, Canine; conditions: dog, MDCK
P‐glycoprotein [4] = conditions: digoxin efflux, rat colon; cited from earlier work
[5] = Bidirectional permeability and efflux ratio in Caco‐2 cells; format: in vitro ADME, human; conditions: human; for Papp A→B at 2 h, 5 μmol/L / Papp B→A at 2 h, 5 μmol/L: Caco-2; for efflux ratio at 2 h, 5 μmol/L: Caco-2, Efflux ratio, Caco‐2 cell line, P app(B–A)/P app(A–B)
P‐glycoprotein [6] = conditions: digoxin efflux, human colon, cited from earlier work
human P-gp (MDR1) = human P-gp (MDR1) (Homo sapiens, UniProt P08183); assay: Bidirectional permeability and efflux ratio in MDR1‐MDCK cells; format: in vitro ADME; conditions: human; for Papp A→B at 2 h, 1 μmol/L / Papp B→A at 2 h, 1 μmol/L: MDCK-MDR1; for efflux ratio at 2 h, 1 μmol/L: MDCK-MDR1, Efflux ratio, MDR1‐MDCK cell line, P app(B–A)/P app(A–B)
[7] = Rat microdialysis at additional two brain positions; format: in vivo; conditions: steady state, n = 3, mean ± SD
[8] = Rat brain and blood microdialysis at steady state; conditions: for concentration at 6 h: male, Sprague-Dawley, rat, in vivo, iv, C m,brain, steady‐state unbound concentration in brain (right striatum), microdialysis, IV infusion, mean ± SD
P‐gp = conditions: cited from earlier work
[9] = rat; ref 20 (Summerfield et al); cited from earlier work
MDCK‐MDR1‐NKI cell lines = conditions: cited from earlier work
human P‐gp (MDR1‐MDCK) = human P‐gp (MDR1‐MDCK) (Homo sapiens, UniProt P08183); assay: Bidirectional permeability and efflux ratio in MDR1‐MDCK cells; format: in vitro ADME; conditions: MDR1‐MDCK cell line, P app(B–A)/P app(A–B)
MDCK cell line = assay: Bidirectional permeability in parental MDCK cells; format: in vitro ADME, Canine; conditions: MDCK cell line, 1 μmol/L, 2 hours, 10 uM Cyclosporin A, n = 4
Caco‐2 cell line = assay: Bidirectional permeability and efflux ratio in Caco‐2 cells; format: in vitro ADME, human; conditions: Caco‐2 cell line, P app(B–A)/P app(A–B)
[10] = cited from earlier work

human P‐gp (MDR1‐MDCK), sequence (P08183 whole entry): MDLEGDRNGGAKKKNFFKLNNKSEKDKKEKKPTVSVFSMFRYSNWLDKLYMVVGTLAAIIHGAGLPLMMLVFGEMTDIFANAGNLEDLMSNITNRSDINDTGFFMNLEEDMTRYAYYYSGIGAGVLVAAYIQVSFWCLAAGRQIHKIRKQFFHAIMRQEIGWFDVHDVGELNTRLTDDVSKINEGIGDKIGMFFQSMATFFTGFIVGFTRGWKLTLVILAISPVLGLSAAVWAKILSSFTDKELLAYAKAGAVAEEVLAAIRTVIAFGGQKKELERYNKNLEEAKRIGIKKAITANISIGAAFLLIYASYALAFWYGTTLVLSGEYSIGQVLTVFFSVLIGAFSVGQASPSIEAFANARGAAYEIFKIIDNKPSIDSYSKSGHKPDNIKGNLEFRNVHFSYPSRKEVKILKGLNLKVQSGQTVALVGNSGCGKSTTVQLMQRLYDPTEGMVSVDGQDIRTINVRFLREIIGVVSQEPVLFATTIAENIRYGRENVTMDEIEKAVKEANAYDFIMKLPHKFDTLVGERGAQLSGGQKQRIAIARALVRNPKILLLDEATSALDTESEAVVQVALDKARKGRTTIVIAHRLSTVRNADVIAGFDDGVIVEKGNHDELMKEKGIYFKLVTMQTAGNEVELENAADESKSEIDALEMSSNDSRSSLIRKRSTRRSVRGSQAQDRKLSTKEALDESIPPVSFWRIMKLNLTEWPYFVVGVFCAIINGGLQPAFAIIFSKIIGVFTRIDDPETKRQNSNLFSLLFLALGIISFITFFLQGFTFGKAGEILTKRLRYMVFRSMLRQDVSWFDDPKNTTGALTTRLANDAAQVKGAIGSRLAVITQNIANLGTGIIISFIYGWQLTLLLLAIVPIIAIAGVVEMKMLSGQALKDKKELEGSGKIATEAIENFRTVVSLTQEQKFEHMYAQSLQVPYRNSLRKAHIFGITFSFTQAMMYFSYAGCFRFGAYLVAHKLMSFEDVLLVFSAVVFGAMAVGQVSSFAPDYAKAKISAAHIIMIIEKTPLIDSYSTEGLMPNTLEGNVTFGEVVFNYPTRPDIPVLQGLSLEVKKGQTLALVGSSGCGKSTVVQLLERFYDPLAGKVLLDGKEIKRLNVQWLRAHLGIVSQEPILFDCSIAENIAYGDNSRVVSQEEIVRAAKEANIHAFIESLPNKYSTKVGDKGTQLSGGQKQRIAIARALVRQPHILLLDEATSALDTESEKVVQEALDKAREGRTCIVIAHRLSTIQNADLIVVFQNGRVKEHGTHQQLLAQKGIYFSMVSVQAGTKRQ
human P-gp (MDR1), sequence (P08183 whole entry): as above

SMILES	Efflux transporter substrate [1]	Class (based on membrane permeability and ER value) [1]	Vd [2] [L/kg]	clearance [2] [mL/min/kg]	half-life [2] [min]	Papp A→B at 2 h, 1 μmol/L [3] [×10⁻⁶ cm/s]	Papp B→A at 2 h, 1 μmol/L [3] [×10⁻⁶ cm/s]	Papp at 2 h, 1 μmol/L [3] [×10⁻⁶ cm/s]	Papp A→B at 2 h, 5 μmol/L [5] [×10⁻⁶ cm/s]	Papp B→A at 2 h, 5 μmol/L [5] [×10⁻⁶ cm/s]	Papp A→B at 2 h, 1 μmol/L (human P-gp (MDR1)) [×10⁻⁶ cm/s]	Papp B→A at 2 h, 1 μmol/L (human P-gp (MDR1)) [×10⁻⁶ cm/s]	concentration at 6 h [8] [nM]	Efflux ratio (Caco‐2 cell line)	other results
C[C@H]1O[C@@H](O[C@H]2[C@@H](O)C[C@H](O[C@H]3[C@@H](O)C[C@H](O[C@H]4CC[C@@]5(C)[C@H](CC[C@@H]6[C@@H]5C[C@@H](O)[C@]5(C)[C@@H](C7=CC(=O)OC7)CC[C@]65O)C4)O[C@@H]3C)O[C@@H]2C)C[C@H](O)[C@@H]1O [Digoxin, digoxin]	Yes	Class II	0.376 ± 0.013	9.1 ± 1.3	78 ± 15.6	2.22 ± 0.34	2.73 ± 0.45	2.48 ± 0.46	0.477 ± 0.088	23 ± 1.6	–	–	–	–	J max (maximal net flux) (P‐glycoprotein [4]): 2.2 ± 0.3 nmol/h/cm^2; J max (maximal net flux) (P‐glycoprotein [6]): 3.1 ± 0.8 nmol/h/cm^2; EC50 (P‐glycoprotein [6]; read-out: EC50 (the concentration at which half‐maximal flux was achieved)): 58.7 ± 15.5 µM
CC(=O)Nc1ccc(O)cc1 [Acetaminophen]	–	–	2.87 ± 1.44	–	298 ± 139	16.7 ± 0.6	14.2 ± 0.9	15.5 ± 1.5	19.6 ± 2.1	19.6 ± 1.9	18.5 ± 4.6	14.3 ± 0.9	3450 ± 820	–	C m,brain ([7]; Frontal cortex): 4.79 ± 0.34 µmol/L; C m,brain ([7]; Hypothalamus): 4.62 ± 0.82 µmol/L
Cc1c(O)cccc1C(=O)N[C@@H](CSc1ccccc1)[C@H](O)CN1C[C@H]2CCCC[C@H]2C[C@H]1C(=O)NC(C)(C)C [neflinivir]	–	–	–	–	–	–	–	–	–	–	–	–	–	–	permeability (P‐gp): 0.000197 cm/s
CNS(=O)(=O)Cc1ccc2[nH]cc(CCN(C)C)c2c1 [Sumatriptan, sumatriptan]	Yes	Class II	3.11 ± 0.03	59.1 ± 5.8	58.8 ± 0.66	1.07 ± 0.08	2.21 ± 0.37	1.64 ± 0.66	0.904 ± 0.283	1.91 ± 0.6	0.683 ± 0.04	1.54 ± 0.59	845 ± 439	–	efflux ratio at 2 h, 1 μmol/L (human P-gp (MDR1)): 2.25; steady‐state unbound concentration in brain lower than in plasma [9]: about 20 fold; efflux ratio at 2 h, 5 μmol/L [5]: 2.12
C=C[C@H]1C[N@@]2CC[C@H]1C[C@@H]2[C@@H](O)c1ccnc2ccc(OC)cc12 [Quinidine, quinidine]	–	–	–	–	–	–	–	–	–	–	–	–	552 ± 126	–	permeability (MDCK‐MDR1‐NKI cell lines): about 60 × 10^−6 cm/sec
Nc1nc2[nH]cc(CCc3ccc(C(=O)N[C@@H](CCC(=O)O)C(=O)O)cc3)c2c(=O)[nH]1 [Pemetrexed, pemetrexed]	Yes (?)	Class II	0.637 ± 0.272	14 ± 1.8	298 ± 69	0.452 ± 0.092	0.793 ± 0.148	0.623 ± 0.215	0.392 ± 0.207	0.707 ± 0.443	0.709 ± 0.236	0.442 ± 0.252	31.3 ± 19.3	1.81	Efflux ratio (human P‐gp (MDR1‐MDCK)): 0.623; Efflux ratio (human P‐gp (MDR1‐MDCK); listed as pemetrexed): less than 2.0; Average P app (MDCK cell line): 0.623 10^−6 cm/s; efflux ratio at 2 h, 5 μmol/L [5]: < 2; difference in steady‐state unbound drug concentrations between the brain and blood ([8]; brain lower than blood, rat microdialysis): 86 fold
COc1ccc([C@@H]2Sc3ccccc3N(CCN(C)C)C(=O)[C@@H]2OC(C)=O)cc1 [Diltiazem, diltiazem]	No	Class I	2.85 ± 0.3	97.7 ± 18.8	49.4 ± 19.5	23.2 ± 2.6	13.6 ± 1.3	18.4 ± 5.5	21.7 ± 2.3	20.1 ± 2.3	12.5 ± 3.1	18.7 ± 1.9	–	0.926	Efflux ratio (human P‐gp (MDR1‐MDCK)): 1.49; efflux ratio at 2 h, 1 μmol/L (human P-gp (MDR1)): < 2; reported mean values of rat plasma CL [10]: 90.3 mL/min/kg; Efflux ratio (Caco‐2 cell line; listed as diltiazem): less than 2.0
Cc1cc(=O)n(-c2ccccc2)n1C [Antipyrine]	No	Class I	0.724 ± 0.051	4.81 ± 0.77	119 ± 25.8	–	–	–	36.2 ± 1.2	25.1 ± 0.6	38.2 ± 2.1	25.8 ± 1.9	–	–	C m,brain ([7]; Frontal cortex): 3.66 ± 1.19 µmol/L; C m,brain ([7]; Hypothalamus): 3.81 ± 0.25 µmol/L
CC(C)NCC(O)COc1cccc2ccccc12 (stereo not drawn) [Propranolol, propranolol]	No	Class I	4.64 ± 0.7	82.8 ± 12.5	56.6 ± 3.72	13.7 ± 5.3	8.37 ± 3.8	11 ± 5.2	21.2 ± 3.6	13.8 ± 0.5	18.9 ± 2.6	16.8 ± 0.5	1490 ± 240	0.654	Average P app (MDCK cell line): about 11.0 10^−6 cm/s; reported mean values of rat plasma CL [10]: 68 mL/min/kg; Efflux ratio (Caco‐2 cell line; listed as propranolol): less than 2.0
